# Experimental data taken from US20240246931A1, “COMPOUNDS AS PD1/PD-L1 INHIBITORS AND METHODS THEREOF” (JUBILANT PRODEL LLC, priority 2021, published 2024).
# Counter-ions that a name gives are not always drawn.
# How the values were obtained:
# [1] = Metabolic stability in mouse liver microsomes; format: in vitro ADME; conditions: mouse liver microsomes 1.0 mg/mL, compound 1 μM, NADPH, second number of HLM/MLM cell
# From the text: (§1) Metabolic Stability in Liver Microsomes
# (§2) The purpose of this experiment is to measure the metabolic half-life of NCEs in sub-cellular fractions such as human liver microsomes (HLM) or mouse liver microsomes (MLM). This provides an in vitro means to calculate intrinsic hepatic clearance, and to support the prediction of human pharmacokinetics. This approach has been successfully utilized at early phase of drug discovery projects, to provide SAR input for reducing metabolic instability and for predicting in vivo hepatic clearance.
# (§3) Procedure: Potassium phosphate buffer (66.7 mM, pH 7.4) containing liver microsomes (mouse and human) (1.0 mg/mL) was pre-incubated separately with compound (1 μM) and positive control (verapamil, 1 μM) in a 37° C. water bath for 5 min. The reactions were initiated by adding 20 μL of 10 mM NADPH. Reactions without NADPH (0 and 30 min) were also incubated to rule out non-NADPH metabolism or chemical instability in the incubation buffer. All reactions were terminated using 200 μL of ice-cold acetonitrile containing internal standard at 0, 5, 15 and 30 min. The vials were centrifuged at 3000 rpm for 15 min. The supernatants thus obtained were analyzed on LC-MS/MS to monitor the disappearance of test compound.
# [2] = Metabolic stability in human liver microsomes; format: in vitro ADME; conditions: human liver microsomes 1.0 mg/mL, compound 1 μM, NADPH, first number of HLM/MLM cell
# From the text: as §1, §2, §3
# [3] = target: T1, PD-1/PD-L1 interaction (Homo sapiens, UniProt Q9NZQ7); experiment: PD-1/PD-L1 HTRF binding assay (CisBio kit); conditions: HTRF PD1/PD-L1 inhibition assay
# T1 construct: purchased CisBio 63ADK000CPAPEG
# Method: PD-L1 Enzyme Assay: Homogenous Time-Resolved Fluorescence (HTRF) Binding Assay
# All binding studies were performed using PD-1/PD-L1 Binding Assay Kit from CisBio (Catalog #63ADK000CPAPEG), according to the manufacturer's protocol. The interaction between Tag1-PD-1 and […] was detected by anti-Tag1-Eu^3+ (HTRF donor) and anti-Tag2-XL665 (HTRF acceptor). When the donor and acceptor antibodies were brought to close proximity due to PD-1 and PD-L1 binding, excitation of the donor antibody triggered fluorescent resonance energy transfer (FRET) towards the acceptor antibody, which in turn emitted specifically at 665 nm. This specific signal is positively proportional to PD-1/PD-L1 interaction. The compounds blocking PD-1/PD-L1 interaction will cause a reduction in HTRF signal. The necessary reagents were mixed in the following order: 2 μL compounds (or diluents buffer), 4 μL PD-L1 protein, 4 μL PD-1 protein. After an incubation of 15 minutes, 5 μL of anti-Tag1-Eu^3+ and 5 μL of anti-Tag2-XL665 were added. The plate was sealed and incubated at room temperature for 1 h. The fluorescence emission was read at two different wavelengths (665 nm and 620 nm) on a BMG PheraStar® multi-plate reader.
# Results were calculated from the 665 nm and 620 nm fluorescence signal and expressed in HTRF ratio=(665 nm/620 nm)×10^4.
# Compounds having IC50<100 nM are designated as “A”; 100-500 nM are designated as “B”; and >500 nM are designated as “C” respectively.
# T1 sequence (Q9NZQ7 19-238 limits assumed): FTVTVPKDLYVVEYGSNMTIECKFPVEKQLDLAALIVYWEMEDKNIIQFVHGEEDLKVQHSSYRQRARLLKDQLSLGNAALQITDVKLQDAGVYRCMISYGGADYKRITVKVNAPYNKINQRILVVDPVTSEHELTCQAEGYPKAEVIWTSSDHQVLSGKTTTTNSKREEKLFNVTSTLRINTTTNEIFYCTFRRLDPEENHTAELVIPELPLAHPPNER
MLM % remaining @ 30 min [1],HLM % remaining @ 30 min [2],IC50 [3] [nM],Compound
83%,72%,< 100,"Cc1c(COc2cc(OCc3cncc(C#N)c3)c(CN3CCCC[C@H]3CO)c3c2CCC3)cccc1-c1ccccc1 [Example 1, (S)-5-(((4-((2-(hydroxymethyl)piperidin-1-yl)methyl)-7-((2-methyl-[1,1′-biphenyl]-3-yl)methoxy)-2,3-dihydro-1H-inden-5-yl)oxy)methyl)nicotinonitrile]"
62%,58%,< 100,"Cc1c(COc2cc(OCc3cccc(C#N)c3)c(CN3CCCC[C@H]3CO)c3c2CCC3)cccc1-c1ccccc1 [Example 2, (S)-3-(((4-((2-(hydroxymethyl)piperidin-1-yl)methyl)-7-((2-methyl-[1,1′-biphenyl]-3-yl)methoxy)-2,3-dihydro-1H-inden-5-yl)oxy)methyl)benzonitrile]"
14%,22%,< 100,"N#Cc1cncc(COc2cc(OCc3cccc(-c4ccccc4)c3C#N)c3c(c2CN2CCC[C@H]2CO)CCC3)c1 [Example 3, (S)-5-(((7-((2-cyano-[1,1′-biphenyl]-3-yl)methoxy)-4-((2-(hydroxymethyl)pyrrolidin-1-yl)methyl)-2,3-dihydro-1H-inden-5-yl)oxy)methyl)nicotinonitrile]"
20/20%,20/20%,< 100,"N#Cc1cccc(COc2cc(OCc3cccc(-c4ccccc4)c3C#N)c3c(c2CN2CCC[C@H]2CO)CCC3)c1 [Example 4, (S)-3-(((6-((3-cyanobenzyl)oxy)-7-((2-(hydroxymethyl)pyrrolidin-1-yl)methyl)-2,3-dihydro-1H-inden-4-yl)oxy)methyl)-[1,1′-biphenyl]-2-carbonitrile]"
13%,16%,< 100,"N#Cc1cncc(COc2cc(OCc3cccc(-c4ccccc4)c3C#N)c3c(c2CN2CCCC[C@H]2CO)CCC3)c1 [Example 5, (S)-5-(((7-((2-cyano-[1,1′-biphenyl]-3-yl)methoxy)-4-((2-(hydroxymethyl)piperidin-1-yl)methyl)-2,3-dihydro-1H-inden-5-yl)oxy)methyl)nicotinonitrile]"
87%,67%,< 100,Cc1c(COc2cc(OCc3cncc(C#N)c3)c(CN3C[C@H](O)C[C@H]3CO)c3c2CCC3)cccc1-c1ccccc1 [Example 6]
76%,66%,< 100,"Cc1c(COc2cc(OCc3cccc(C#N)c3)c(CN3CCC[C@H]3CO)c3c2CCC3)cccc1-c1ccccc1 [Example 7, (S)-3-(((4-((2-(hydroxymethyl)pyrrolidin-1-yl)methyl)-7-((2-methyl-[1,1′-biphenyl]-3-yl)methoxy)-2,3-dihydro-1H-inden-5-yl)oxy)methyl)benzonitrile]"
85%,61%,< 100,"Cc1c(COc2cc(OCc3cncc(C#N)c3)c(CN3CCC[C@H]3CO)c3c2CCC3)cccc1-c1ccccc1 [Example 8, (S)-5-(((4-((2-(hydroxymethyl)pyrrolidin-1-yl)methyl)-7-((2-methyl-[1,1′-biphenyl]-3-yl)methoxy)-2,3-dihydro-1H-inden-5-yl)oxy)methyl)nicotinonitrile]"
21%,8%,< 100,"Cc1c(COc2cc(OCc3cncc(C#N)c3)c(CN3CCOC[C@H]3CO)c3c2CCC3)cccc1-c1ccccc1 [Example 9, (R)-5-(((4-((3-(hydroxymethyl)morpholino)methyl)-7-((2-methyl-[1,1′-biphenyl]-3-yl)methoxy)-2,3-dihydro-1H-inden-5-yl)oxy)methyl)nicotinonitrile]"
70%,69%,< 100,"Cc1c(COc2cc(OCc3cncc(C#N)c3)c(CN3CCC3CO)c3c2CCC3)cccc1-c1ccccc1 (centres unmarked) [Example 10, 5-(((4-((2-(hydroxymethyl)azetidin-1-yl)methyl)-7-((2-methyl-[1,1′-biphenyl]-3-yl)methoxy)-2,3-dihydro-1H-inden-5-yl)oxy)methyl)nicotinonitrile]"
,,100 to 500,"Cc1c(COc2cc(OCc3cncc(C#N)c3)c(CN3CCC3CO)c3c2CCC3)cccc1-c1cccnc1 (centres unmarked) [Example 71, 5-(((4-((2-(hydroxymethyl)azetidin-1-yl)methyl)-7-((2-methyl-3-(pyridin-3-yl)benzyl)oxy)-2,3-dihydro-1H-inden-5-yl)oxy)methyl)nicotinonitrile]"
,,100 to 500,"Cc1c(COc2cc(OCc3cncc(C#N)c3)c(CN3CC[C@H]3CO)c3c2CCC3)cccc1-c1cnc2[nH]ccc2c1 [Example 72, (S)-5-(((4-((2-(hydroxymethyl)azetidin-1-yl)methyl)-7-((2-methyl-3-(1H-pyrrolo[2,3-b]pyridin-5-yl)benzyl)oxy)-2,3-dihydro-1H-inden-5-yl)oxy)methyl)nicotinonitrile]"
,,100 to 500,"Cc1ccc(-c2cccc(COc3cc(OCc4cncc(C#N)c4)c(CN4CCC4CO)c4c3CCC4)c2C)cc1 (centres unmarked) [Example 73, 5-(((7-((2,4′-dimethyl-[1,1′-biphenyl]-3-yl)methoxy)-4-((2-(hydroxymethyl)azetidin-1-yl)methyl)-2,3-dihydro-1H-inden-5-yl)oxy)methyl)nicotinonitrile]"
,,> 500,"Cc1c(COc2cc(OCc3cncc(C#N)c3)c(CN3CCC3CO)c3c2CCC3)cccc1-c1cnc2[nH]ccc2c1 (centres unmarked) [Example 74, 5-(((4-((2-(hydroxymethyl)azetidin-1-yl)methyl)-7-((2-methyl-3-(1H-pyrrolo[2,3-b]pyridin-5-yl)benzyl)oxy)-2,3-dihydro-1H-inden-5-yl)oxy)methyl)nicotinonitrile 2,2,2-trifluoroacetate]"
,,> 500,"Cc1c(COc2cc(OCc3cncc(C#N)c3)c(CN3CCC3CO)c3c2CCC3)cccc1-c1ccc(C(C)(C)C)cc1 (centres unmarked) [Example 75, 5-(((7-((4′-(tert-butyl)-2-methyl-[1,1′-biphenyl]-3-yl)methoxy)-4-((2-(hydroxymethyl)azetidin-1-yl)methyl)-2,3-dihydro-1H-inden-5-yl)oxy)methyl)nicotinonitrile]"
,,100 to 500,"Cc1c(COc2cc(OCc3cncc(C#N)c3)c(CN3CCC3CO)c3c2CCC3)cccc1-c1ccc(F)cc1 (centres unmarked) [Example 76, 5-(((7-((4′-fluoro-2-methyl-[1,1′-biphenyl]-3-yl)methoxy)-4-((2-(hydroxymethyl)azetidin-1-yl)methyl)-2,3-dihydro-1H-inden-5-yl)oxy)methyl)nicotinonitrile]"
,,> 500,"Cc1c(COc2cc(Oc3ccccc3)c(CN3CCC3CO)c3c2CCC3)cccc1-c1ccccc1 (centres unmarked) [Example 78, (1-((7-((2-methyl-[1,1′-biphenyl]-3-yl)methoxy)-5-phenoxy-2,3-dihydro-1H-inden-4-yl)methyl)azetidin-2-yl)methanol]"
,,< 100,"CNC(=O)NCC1CCCN1Cc1c(OCc2cncc(C#N)c2)cc(OCc2cccc(-c3ccccc3)c2C)c2c1CCC2 (centres unmarked) [Example 80, 1-((1-((5-((5-cyanopyridin-3-yl)methoxy)-7-((2-methyl-[1,1′-biphenyl]-3-yl)methoxy)-2,3-dihydro-1H-inden-4-yl)methyl)pyrrolidin-2-yl)methyl)-3-methylurea formate]"

Compound,MLM % remaining @ 30 min [1],HLM % remaining @ 30 min [2],IC50 [3] [nM]
"Cc1c(COc2cc(OCc3cncc(C#N)c3)c(CN3CC4(CCC3CO)CC4)c3c2CCC3)cccc1-c1ccccc1 (centres unmarked) [Example 11, 5-(((4-((6-(hydroxymethyl)-5-azaspiro[2.5]octan-5-yl)methyl)-7-((2-methyl-[1,1′-biphenyl]-3-yl)methoxy)-2,3-dihydro-1H-inden-5-yl)oxy)methyl)nicotinonitrile]",11%,21%,< 100
